The record followed here is ChEMBL document CHEMBL3098111, “Discovery of 2,5-diarylnicotinamides as selective orexin-2 receptor antagonists (2-SORAs)” (Bioorg Med Chem Lett, 2013).

For assay [1], the target named is Tyrosine-protein phosphatase non-receptor type 2 (Homo sapiens) (UniProt P17706). The assay can be described thus: Inhibition of human TCPTP at 10 uM relative to control.
Assay [2] deals with Adenosine receptor A1 (Homo sapiens) (UniProt P30542). As to the kind of experiment: Inhibition of human adenosine A1 receptor at 10 uM relative to control.
The next assay addresses Caspase-6 (Homo sapiens) (UniProt P55212). As to the kind of experiment: Inhibition of human caspase 6 at 10 uM relative to control.
Assay [3] is filed under the species Rattus norvegicus. The assay can be described thus: Inhibition of rat GABA transporter at 10 uM relative to control.
The target in assay [4] is 5-hydroxytryptamine receptor 1B (Rattus norvegicus) (UniProt P28564). The assay can be described thus: Inhibition of rat 5-HT1B receptor at 0.1 uM relative to control.
The target of assay [5] is Prostaglandin F2-alpha receptor (Homo sapiens) (UniProt P43088). The assay can be described thus: Inhibition of human prostanoid FP receptor at 10 uM relative to control.
For assay [6], the species on record is Rattus norvegicus. The assay can be described thus: Inhibition of rat bombesin receptor at 10 uM relative to control.
Assay [7] deals with Protein kinase C alpha type (Homo sapiens) (UniProt P17252). As to the kind of experiment: Inhibition of human PRKCA at 100 uM relative to control.
The target in assay [8] is Epidermal growth factor receptor (Homo sapiens) (UniProt P00533). As to the kind of experiment: Inhibition of human EGF receptor at 10 uM relative to control.
A further assay has as its target Mu-type opioid receptor (Homo sapiens, UniProt P35372). As to the kind of experiment: Inhibition of human mu opioid receptor at 10 nM relative to control.
The target of assay [9] is Vascular endothelial growth factor receptor 1 (Homo sapiens) (UniProt P17948). As to the kind of experiment: Inhibition of human FLT1 at 10 uM relative to control.
In assay [10] the target is Melanocortin receptor 3 (Homo sapiens) (UniProt P41968). The assay can be described thus: Inhibition of human MC3 receptor at 10 uM relative to control.
Assay [11] addresses Cysteinyl leukotriene receptor 1 (Homo sapiens) (UniProt Q9Y271). As to the kind of experiment: Inhibition of human CysLT1 receptor at 10 uM relative to control.
For assay [12], the species on record is Rattus norvegicus. The assay can be described thus: Inhibition of rat 5-HT1 receptor at 10 uM relative to control.

Sequence of Adenosine receptor A1 (Homo sapiens) (P30542 whole entry): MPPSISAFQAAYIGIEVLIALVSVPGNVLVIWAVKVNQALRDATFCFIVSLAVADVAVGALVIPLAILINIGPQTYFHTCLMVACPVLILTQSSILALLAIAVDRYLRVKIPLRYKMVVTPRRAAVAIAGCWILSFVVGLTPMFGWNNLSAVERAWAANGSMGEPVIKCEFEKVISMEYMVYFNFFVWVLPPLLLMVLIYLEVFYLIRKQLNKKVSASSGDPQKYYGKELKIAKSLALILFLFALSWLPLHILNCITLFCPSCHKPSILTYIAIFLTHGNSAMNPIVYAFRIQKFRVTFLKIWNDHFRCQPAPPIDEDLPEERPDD
Sequence of Tyrosine-protein phosphatase non-receptor type 2 (Homo sapiens) (P17706 whole entry): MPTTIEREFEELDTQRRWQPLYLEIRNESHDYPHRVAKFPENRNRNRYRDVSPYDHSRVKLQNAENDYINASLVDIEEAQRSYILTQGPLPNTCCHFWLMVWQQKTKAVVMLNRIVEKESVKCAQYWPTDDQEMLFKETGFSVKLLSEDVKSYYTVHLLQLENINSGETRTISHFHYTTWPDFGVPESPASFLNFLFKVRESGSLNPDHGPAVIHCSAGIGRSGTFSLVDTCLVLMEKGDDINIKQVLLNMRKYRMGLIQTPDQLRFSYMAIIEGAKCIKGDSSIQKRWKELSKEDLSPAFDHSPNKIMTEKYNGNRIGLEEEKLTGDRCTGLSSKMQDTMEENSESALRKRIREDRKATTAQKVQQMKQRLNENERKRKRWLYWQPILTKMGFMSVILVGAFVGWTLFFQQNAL
Sequence of Cysteinyl leukotriene receptor 1 (Homo sapiens) (Q9Y271 whole entry): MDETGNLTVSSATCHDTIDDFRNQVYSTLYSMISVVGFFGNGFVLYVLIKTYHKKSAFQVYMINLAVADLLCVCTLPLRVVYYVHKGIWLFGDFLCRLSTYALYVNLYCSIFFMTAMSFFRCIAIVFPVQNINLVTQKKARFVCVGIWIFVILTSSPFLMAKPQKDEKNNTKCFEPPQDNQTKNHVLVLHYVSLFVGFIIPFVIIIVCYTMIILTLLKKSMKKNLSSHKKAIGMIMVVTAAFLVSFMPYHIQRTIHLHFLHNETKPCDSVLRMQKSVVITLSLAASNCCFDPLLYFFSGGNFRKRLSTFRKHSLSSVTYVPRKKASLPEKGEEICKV
Sequence of Caspase-6 (Homo sapiens) (P55212 24-179 limits assumed): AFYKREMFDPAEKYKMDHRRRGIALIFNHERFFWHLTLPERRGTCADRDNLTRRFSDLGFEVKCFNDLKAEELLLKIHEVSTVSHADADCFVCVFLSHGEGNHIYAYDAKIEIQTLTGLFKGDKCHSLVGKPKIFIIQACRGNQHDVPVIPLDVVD
Sequence of Caspase-6 (Homo sapiens) (P55212 194-293 limits assumed): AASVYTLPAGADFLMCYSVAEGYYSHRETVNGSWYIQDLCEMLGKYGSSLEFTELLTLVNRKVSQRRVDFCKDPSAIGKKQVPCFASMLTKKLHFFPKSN
Sequence of Prostaglandin F2-alpha receptor (Homo sapiens) (P43088 whole entry): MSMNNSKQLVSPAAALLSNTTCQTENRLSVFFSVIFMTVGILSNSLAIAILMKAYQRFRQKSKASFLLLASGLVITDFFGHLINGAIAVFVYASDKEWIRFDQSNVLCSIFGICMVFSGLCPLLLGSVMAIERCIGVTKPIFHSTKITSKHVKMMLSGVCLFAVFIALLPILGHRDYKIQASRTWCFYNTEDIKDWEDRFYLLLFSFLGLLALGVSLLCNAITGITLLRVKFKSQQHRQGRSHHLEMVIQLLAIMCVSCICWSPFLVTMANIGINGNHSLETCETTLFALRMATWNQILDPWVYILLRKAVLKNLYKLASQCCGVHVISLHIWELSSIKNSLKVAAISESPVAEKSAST
Sequence of Epidermal growth factor receptor (Homo sapiens) (P00533 whole entry): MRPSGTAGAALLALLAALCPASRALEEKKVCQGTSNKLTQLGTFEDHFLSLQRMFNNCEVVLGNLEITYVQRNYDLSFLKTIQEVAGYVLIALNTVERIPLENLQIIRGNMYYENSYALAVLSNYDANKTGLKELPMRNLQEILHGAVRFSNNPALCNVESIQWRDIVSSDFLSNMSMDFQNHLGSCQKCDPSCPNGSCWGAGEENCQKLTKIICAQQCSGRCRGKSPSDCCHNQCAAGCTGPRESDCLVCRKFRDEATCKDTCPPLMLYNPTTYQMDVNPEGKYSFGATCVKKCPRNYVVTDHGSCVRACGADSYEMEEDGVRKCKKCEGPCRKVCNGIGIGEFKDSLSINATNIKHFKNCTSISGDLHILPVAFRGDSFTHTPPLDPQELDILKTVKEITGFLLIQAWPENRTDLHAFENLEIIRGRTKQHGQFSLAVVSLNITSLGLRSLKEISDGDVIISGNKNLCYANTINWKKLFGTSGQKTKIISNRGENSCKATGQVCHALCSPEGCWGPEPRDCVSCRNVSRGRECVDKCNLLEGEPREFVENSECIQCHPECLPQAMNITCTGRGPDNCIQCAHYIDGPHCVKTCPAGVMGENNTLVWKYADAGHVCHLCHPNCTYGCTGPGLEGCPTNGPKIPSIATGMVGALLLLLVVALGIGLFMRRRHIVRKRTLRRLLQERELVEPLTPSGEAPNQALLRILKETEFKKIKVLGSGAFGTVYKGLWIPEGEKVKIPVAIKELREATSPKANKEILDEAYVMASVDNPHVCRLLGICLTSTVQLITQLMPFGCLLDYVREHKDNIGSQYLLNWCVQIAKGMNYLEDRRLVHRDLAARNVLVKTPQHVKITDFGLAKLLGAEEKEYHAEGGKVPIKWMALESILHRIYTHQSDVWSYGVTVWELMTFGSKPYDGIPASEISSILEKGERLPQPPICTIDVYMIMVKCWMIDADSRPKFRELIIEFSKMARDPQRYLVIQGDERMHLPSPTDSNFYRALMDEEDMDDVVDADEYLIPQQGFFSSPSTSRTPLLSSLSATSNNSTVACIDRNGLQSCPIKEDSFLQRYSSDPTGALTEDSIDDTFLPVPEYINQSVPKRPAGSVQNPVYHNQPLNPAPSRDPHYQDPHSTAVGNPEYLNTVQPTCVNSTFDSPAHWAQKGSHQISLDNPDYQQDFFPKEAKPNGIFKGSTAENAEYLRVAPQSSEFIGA
Sequence of Melanocortin receptor 3 (Homo sapiens) (P41968 whole entry): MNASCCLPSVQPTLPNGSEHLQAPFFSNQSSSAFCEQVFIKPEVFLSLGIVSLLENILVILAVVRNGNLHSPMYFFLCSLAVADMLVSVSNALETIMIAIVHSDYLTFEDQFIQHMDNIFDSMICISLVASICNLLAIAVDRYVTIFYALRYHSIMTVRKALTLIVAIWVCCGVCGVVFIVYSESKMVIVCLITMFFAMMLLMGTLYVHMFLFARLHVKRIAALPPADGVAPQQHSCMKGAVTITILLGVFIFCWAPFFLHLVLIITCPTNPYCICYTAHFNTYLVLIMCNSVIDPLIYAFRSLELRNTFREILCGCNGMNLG
Sequence of 5-hydroxytryptamine receptor 1B (Rattus norvegicus) (P28564 whole entry): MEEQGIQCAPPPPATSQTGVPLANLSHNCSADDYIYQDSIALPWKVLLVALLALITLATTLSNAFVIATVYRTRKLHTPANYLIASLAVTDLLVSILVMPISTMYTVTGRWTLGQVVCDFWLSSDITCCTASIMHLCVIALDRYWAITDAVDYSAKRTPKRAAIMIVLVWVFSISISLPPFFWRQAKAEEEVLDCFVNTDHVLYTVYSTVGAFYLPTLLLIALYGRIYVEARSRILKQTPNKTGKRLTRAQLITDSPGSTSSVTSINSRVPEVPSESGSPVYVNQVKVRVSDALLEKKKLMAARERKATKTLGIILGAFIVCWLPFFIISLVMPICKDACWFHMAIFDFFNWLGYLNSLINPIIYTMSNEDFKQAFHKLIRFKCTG
Sequence of Mu-type opioid receptor (P35372 whole entry): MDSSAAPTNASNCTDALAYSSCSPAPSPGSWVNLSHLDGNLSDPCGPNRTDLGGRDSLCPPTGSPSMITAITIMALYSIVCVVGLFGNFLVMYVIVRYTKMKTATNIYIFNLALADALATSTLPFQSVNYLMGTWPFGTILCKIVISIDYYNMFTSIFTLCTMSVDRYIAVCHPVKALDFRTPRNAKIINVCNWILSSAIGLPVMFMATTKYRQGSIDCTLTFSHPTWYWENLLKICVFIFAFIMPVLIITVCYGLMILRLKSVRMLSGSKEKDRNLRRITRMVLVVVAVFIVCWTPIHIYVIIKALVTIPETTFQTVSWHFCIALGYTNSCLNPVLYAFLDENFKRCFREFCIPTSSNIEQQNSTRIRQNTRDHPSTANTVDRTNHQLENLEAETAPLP

By inhibition is commonly meant the drop in the measured response relative to a control, in per cent. For the compound `COc1ccc(CNC(=O)c2cc(-c3cc(Cl)cc(Cl)c3)cnc2-c2cccnc2)cc1OC`, the inhibition in [1] amounted to 4%; in assay [2], 22%; against Caspase-6 (Homo sapiens), 7%; in the assay filed under Rattus norvegicus [3] it was 3%; in assay [4], 9%; in assay [5], 19%. Also, the inhibition in the assay filed under Rattus norvegicus [6] was 3%; in assay [7] it was 29%; in [8] it was 10%; at Mu-type opioid receptor, -3%; in assay [9] it was 20%; in assay [10], 2%. In addition, the figures for the inhibition (in [11]; in the assay filed under Rattus norvegicus [12]) were 9% and 36%, respectively.
